Results: ChEMBL document CHEMBL1201862, “PubChem BioAssay data set” (2004)
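Exposure lasted 48 hours, with cells grown in 96-well plates and compounds tested at five concentrations. GI50 marks 50% less growth.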 Activity calls are given as the source filed them. No stated cut-off is given here; in the data, active = GI50 up to about 1.1 µM and inactive = higher.

What was measured:
Assay in all cases: growth of human tumour cells (NCI), 48 h
UO-31 = test system: UO-31
T47D = test system: T47D
SNB-19 = test system: SNB-19
DU-145 = test system: DU-145
SK-MEL-28 = test system: SK-MEL-28
NCI-H226 = test system: NCI-H226
CAKI-1 = test system: CAKI-1
COLO 205 = test system: COLO 205
TK-10 = test system: TK-10
MOLT-4 = test system: MOLT-4
786-0 = test system: 786-0
U-251 = test system: U-251
SK-MEL-5 = test system: SK-MEL-5
MDA-N = test system: MDA-N
SF-295 = test system: SF-295
UACC-257 = test system: UACC-257
A498 = test system: A498
MDA-MB-435 = test system: MDA-MB-435
SNB-75 = test system: SNB-75

Measured: GI50

O=c1sc2c(s1)SSSSS2
inactive: UO-31 > 50 µM | T47D > 50 µM | SNB-19 > 50 µM | DU-145 > 50 µM | SK-MEL-28 > 50 µM | NCI-H226 > 50 µM | CAKI-1 > 50 µM | COLO 205 > 50 µM | TK-10 > 50 µM | MOLT-4 11.8 µM | 786-0 > 50 µM | U-251 > 50 µM | SK-MEL-5 > 50 µM | MDA-N > 50 µM | SF-295 > 50 µM | UACC-257 28.6 µM | A498 > 50 µM | MDA-MB-435 > 50 µM

COC(=O)C1C(OCc2ccccc2)C2CCC1(OC)C=C2C (configuration not stated)
inactive: UO-31 > 100 µM | SNB-19 > 81.8 µM | SNB-75 > 100 µM | SK-MEL-28 > 100 µM | NCI-H226 75.5 µM | CAKI-1 > 77.6 µM | COLO 205 > 100 µM | TK-10 > 74.3 µM | MOLT-4 24.9 µM | 786-0 > 100 µM | U-251 > 55.2 µM | SK-MEL-5 > 85.5 µM | SF-295 > 79.6 µM | UACC-257 42.8 µM | A498 > 100 µM

COc1ccc(C2(CC(C)C)CCN(S(=O)(=O)c3ccc(C)cc3)C2)cc1OC (configuration not stated)
inactive: UO-31 41.6 µM | T47D 14.4 µM | SNB-19 49.7 µM | DU-145 36 µM | SNB-75 36.9 µM | SK-MEL-28 30.1 µM | NCI-H226 22.5 µM | CAKI-1 > 100 µM | COLO 205 25.8 µM | TK-10 63.5 µM | MOLT-4 2.94 µM | 786-0 27.8 µM | U-251 36.2 µM | SK-MEL-5 13.6 µM | MDA-N 70.8 µM | SF-295 36.5 µM | UACC-257 28.5 µM | MDA-MB-435 21.8 µM

O=C1C=Cc2c(I)sc(I)c21
inactive: UO-31 15.8 µM | T47D 18.1 µM | DU-145 30 µM | SNB-75 30.1 µM | SK-MEL-28 19.8 µM | NCI-H226 31.3 µM | CAKI-1 18.7 µM | COLO 205 19 µM | TK-10 30.2 µM | MOLT-4 12 µM | 786-0 10.3 µM | U-251 17 µM | SK-MEL-5 74.5 µM | MDA-N 24.9 µM | SF-295 46.8 µM | UACC-257 20 µM | A498 48.5 µM | MDA-MB-435 19.4 µM

NNC(=O)c1nn[nH]c1C(=O)NN
inactive: UO-31 19 µM | SNB-19 > 100 µM | DU-145 > 100 µM | CAKI-1 15.8 µM | COLO 205 > 100 µM | TK-10 > 100 µM | MOLT-4 > 100 µM | 786-0 15.5 µM | U-251 > 100 µM | SK-MEL-5 > 100 µM | MDA-N > 100 µM | SF-295 > 100 µM | UACC-257 > 100 µM | MDA-MB-435 > 100 µM

c1ccc2c(c1)cc(C1NCCc3nc[nH]c31)c1ccccc12 (configuration not stated)
inactive: UO-31 33.7 µM | SNB-19 > 100 µM | SNB-75 32.7 µM | SK-MEL-28 > 47.6 µM | NCI-H226 27.7 µM | CAKI-1 48.8 µM | COLO 205 13.5 µM | TK-10 > 100 µM | MOLT-4 21 µM | 786-0 32.1 µM | U-251 39.1 µM | SK-MEL-5 > 48 µM | SF-295 56.2 µM | UACC-257 31 µM | A498 22.5 µM

NC(=S)N/N=C1\CCCCc2ccccc21
inactive: UO-31 > 10 µM | T47D 4.81 µM | SNB-19 > 10 µM | DU-145 > 10 µM | NCI-H226 > 10 µM | CAKI-1 > 10 µM | COLO 205 > 10 µM | TK-10 > 10 µM | MOLT-4 > 10 µM | 786-0 > 10 µM | U-251 > 10 µM | MDA-N > 10 µM | SF-295 > 10 µM | UACC-257 > 10 µM | MDA-MB-435 > 10 µM

C#CCOCn1cnc2ncnc(N)c21
inactive: UO-31 > 100 µM | SNB-19 > 100 µM | SNB-75 > 100 µM | SK-MEL-28 > 100 µM | NCI-H226 > 100 µM | CAKI-1 > 100 µM | COLO 205 > 100 µM | TK-10 > 100 µM | MOLT-4 > 100 µM | 786-0 > 100 µM | U-251 > 100 µM | SK-MEL-5 > 100 µM | SF-295 > 100 µM | UACC-257 > 100 µM | A498 > 100 µM

Cc1oc(N)c(S(=O)(=O)/C(C#N)=C/c2ccccc2[N+](=O)[O-])c1C
inactive: UO-31 16.4 µM | T47D 27 µM | SNB-19 33.5 µM | DU-145 62.4 µM | SNB-75 33.2 µM | SK-MEL-28 24.2 µM | NCI-H226 58.3 µM | CAKI-1 22.6 µM | COLO 205 21.7 µM | TK-10 50.2 µM | MOLT-4 22.4 µM | 786-0 30.5 µM | U-251 19.5 µM | SK-MEL-5 19.2 µM | MDA-N 20.7 µM | SF-295 33.9 µM | UACC-257 32.2 µM | A498 85.5 µM | MDA-MB-435 32.7 µM

N[C@H](C(=O)O)[C@H](Cl)CC(=O)O
inactive: UO-31 > 100 µM | SNB-19 > 100 µM | SNB-75 > 100 µM | SK-MEL-28 > 100 µM | NCI-H226 > 100 µM | CAKI-1 > 100 µM | COLO 205 > 100 µM | TK-10 > 100 µM | MOLT-4 > 100 µM | 786-0 > 100 µM | U-251 > 100 µM | SK-MEL-5 > 100 µM | SF-295 > 100 µM | UACC-257 > 100 µM | A498 > 100 µM

O=C(CCc1n[nH]c(=S)o1)Nc1ccc(Cl)cc1Cl
inactive: UO-31 > 100 µM | SNB-19 > 100 µM | SNB-75 > 100 µM | SK-MEL-28 > 100 µM | NCI-H226 > 100 µM | CAKI-1 > 100 µM | COLO 205 > 100 µM | TK-10 > 100 µM | MOLT-4 > 100 µM | 786-0 > 100 µM | U-251 > 100 µM | SK-MEL-5 > 100 µM | SF-295 > 100 µM | UACC-257 > 100 µM | A498 > 100 µM

CN(C(=O)/C=C/c1ccccc1)C1C2CN3CCC(O2)C13 (configuration not stated)
inactive: UO-31 > 100 µM | SNB-19 > 100 µM | SNB-75 > 100 µM | SK-MEL-28 > 100 µM | NCI-H226 > 100 µM | CAKI-1 > 100 µM | COLO 205 > 100 µM | TK-10 > 100 µM | MOLT-4 > 100 µM | 786-0 > 100 µM | U-251 > 100 µM | SK-MEL-5 > 100 µM | SF-295 > 100 µM | UACC-257 > 100 µM | A498 > 100 µM
